Key:
[1] = test system: DU-145 (hormone-refractory prostate cancer cells); assay: Resazurin antiproliferative assay, DU-145 cells; format: cell-based, human; settings: towards HFF-1 cell lines
[2] = test system: MDA-MB-231 (triple-negative breast cancer cells); assay: Resazurin antiproliferative assay, MDA-MB-231 cells; format: cell-based, human; settings: towards HFF-1 cell lines

| Structure (SMILES) | Selectivity index (SI = CC50/IC50) HFF-1/DU-145 [1] | Selectivity index (SI = CC50/IC50) HFF-1/MDA-MB-231 [2] |
| --- | --- | --- |
| C[C@@H]1C[C@H](c2ccc(Br)cc2)c2c(cc3ccccn23)C(=O)O1 (racemic) [cis-4d] | 0.03 | 0.06 |
| COc1cc(OC)cc([C@H]2C[C@@H](C)OC(=O)c3cc4ccccn4c32)c1 (racemic) [cis-4f] | > 2 | > 5 |
